Experimental data: the kinase profiling compilation of Christmann-Franck et al. (2016)

Tests used:
Assay in all cases: KINOMEscan competition binding
Conditions in all cases: compound 10.0 µM
MAPK11 (human) = MAPK11 (human) (UniProt Q15759)
PRPF4B (human) = PRPF4B (human) (UniProt Q13523)
TESK1 (human) = TESK1 (human) (UniProt Q15569)
CSNK1G3 (human) = CSNK1G3 (human) (UniProt Q9Y6M4)
CDC42BPA (human) = CDC42BPA (human) (UniProt Q5VT25)
MAP3K11 (human) = MAP3K11 (human) (UniProt Q16584)
MARK2 (human) = MARK2 (human) (UniProt Q7KZI7)
OXSR1 (human) = OXSR1 (human) (UniProt O95747)
CSNK1D (human) = CSNK1D (human) (UniProt P48730)
AXL (human) = AXL (human) (UniProt P30530)
RET (human) = RET (human) (UniProt P07949)
ACVR2B (human) = ACVR2B (human) (UniProt Q13705)
DAPK2 (human) = DAPK2 (human) (UniProt Q9UIK4)
CDK7 (human) = CDK7 (human) (UniProt P50613)
CDK14 (human) = CDK14 (human) (UniProt O94921)
ERBB2 (human) = ERBB2 (human) (UniProt P04626)
RIOK2 (human) = RIOK2 (human) (UniProt Q9BVS4)
FGFR3 (human) = FGFR3 (human) (UniProt P22607)
CSNK1E (human) = CSNK1E (human) (UniProt P49674)
CSNK1E (human), sequence (P49674 whole entry, looked up): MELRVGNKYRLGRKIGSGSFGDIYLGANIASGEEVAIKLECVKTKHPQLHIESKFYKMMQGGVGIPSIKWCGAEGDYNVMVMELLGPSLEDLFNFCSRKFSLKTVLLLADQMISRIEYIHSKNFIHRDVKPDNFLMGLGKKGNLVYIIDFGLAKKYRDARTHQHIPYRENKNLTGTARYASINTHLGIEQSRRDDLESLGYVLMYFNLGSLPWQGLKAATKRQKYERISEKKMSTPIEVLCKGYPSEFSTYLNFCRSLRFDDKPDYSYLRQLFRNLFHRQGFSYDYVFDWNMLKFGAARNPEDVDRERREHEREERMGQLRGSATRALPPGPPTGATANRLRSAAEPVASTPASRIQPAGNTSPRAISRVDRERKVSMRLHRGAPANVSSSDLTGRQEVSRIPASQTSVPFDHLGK

TLK2 (human) = TLK2 (human) (UniProt Q86UE8)
EPHA8 (human) = EPHA8 (human) (UniProt P29322)
EPHA8 (human), sequence (P29322 whole entry, looked up): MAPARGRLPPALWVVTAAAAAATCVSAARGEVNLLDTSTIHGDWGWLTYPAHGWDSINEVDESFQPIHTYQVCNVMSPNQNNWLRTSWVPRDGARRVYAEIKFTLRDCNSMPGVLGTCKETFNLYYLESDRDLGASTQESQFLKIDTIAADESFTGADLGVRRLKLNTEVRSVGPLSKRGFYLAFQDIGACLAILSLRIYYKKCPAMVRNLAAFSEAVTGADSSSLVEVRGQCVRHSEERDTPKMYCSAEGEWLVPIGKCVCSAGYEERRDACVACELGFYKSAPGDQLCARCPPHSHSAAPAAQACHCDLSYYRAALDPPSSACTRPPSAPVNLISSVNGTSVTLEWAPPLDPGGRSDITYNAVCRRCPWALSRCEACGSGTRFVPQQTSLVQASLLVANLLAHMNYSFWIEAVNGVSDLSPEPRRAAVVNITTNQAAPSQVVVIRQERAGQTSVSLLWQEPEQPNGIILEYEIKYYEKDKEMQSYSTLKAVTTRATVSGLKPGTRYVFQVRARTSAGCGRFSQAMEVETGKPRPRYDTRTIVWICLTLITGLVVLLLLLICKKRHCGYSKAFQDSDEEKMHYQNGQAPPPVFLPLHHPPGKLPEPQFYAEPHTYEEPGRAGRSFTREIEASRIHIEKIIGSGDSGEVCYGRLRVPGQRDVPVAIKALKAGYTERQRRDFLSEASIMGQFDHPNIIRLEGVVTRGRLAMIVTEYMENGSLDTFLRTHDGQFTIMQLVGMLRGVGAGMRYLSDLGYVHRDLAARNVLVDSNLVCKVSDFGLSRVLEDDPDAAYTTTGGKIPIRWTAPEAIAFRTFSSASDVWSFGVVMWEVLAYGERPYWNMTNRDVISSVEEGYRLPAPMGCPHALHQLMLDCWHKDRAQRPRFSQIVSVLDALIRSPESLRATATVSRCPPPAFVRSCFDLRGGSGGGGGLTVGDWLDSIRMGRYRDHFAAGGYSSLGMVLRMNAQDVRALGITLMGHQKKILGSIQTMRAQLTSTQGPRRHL

PRKAA1 (human) = PRKAA1 (human) (UniProt Q13131)
PRKAA1 (human), sequence (Q13131 whole entry, looked up): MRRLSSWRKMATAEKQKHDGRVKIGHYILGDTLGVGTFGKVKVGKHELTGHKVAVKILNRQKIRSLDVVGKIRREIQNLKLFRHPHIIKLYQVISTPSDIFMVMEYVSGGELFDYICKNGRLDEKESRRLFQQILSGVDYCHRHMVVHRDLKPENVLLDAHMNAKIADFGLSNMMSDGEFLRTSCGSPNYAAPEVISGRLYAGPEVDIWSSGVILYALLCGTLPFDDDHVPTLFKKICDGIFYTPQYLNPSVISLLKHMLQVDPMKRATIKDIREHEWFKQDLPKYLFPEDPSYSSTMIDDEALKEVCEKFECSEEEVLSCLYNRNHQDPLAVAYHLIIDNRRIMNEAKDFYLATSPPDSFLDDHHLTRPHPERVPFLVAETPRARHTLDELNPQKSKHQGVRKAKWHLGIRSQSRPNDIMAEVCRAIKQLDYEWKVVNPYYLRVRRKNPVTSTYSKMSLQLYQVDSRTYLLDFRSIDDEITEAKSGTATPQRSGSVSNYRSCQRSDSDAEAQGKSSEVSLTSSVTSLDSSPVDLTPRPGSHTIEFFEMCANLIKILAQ

PAK2 (human) = PAK2 (human) (UniProt Q13177)
STK33 (human) = STK33 (human) (UniProt Q9BYT3)
PIK3CB (human) = PIK3CB (human) (UniProt P42338)
PIK3CB (human), sequence (P42338 whole entry, looked up): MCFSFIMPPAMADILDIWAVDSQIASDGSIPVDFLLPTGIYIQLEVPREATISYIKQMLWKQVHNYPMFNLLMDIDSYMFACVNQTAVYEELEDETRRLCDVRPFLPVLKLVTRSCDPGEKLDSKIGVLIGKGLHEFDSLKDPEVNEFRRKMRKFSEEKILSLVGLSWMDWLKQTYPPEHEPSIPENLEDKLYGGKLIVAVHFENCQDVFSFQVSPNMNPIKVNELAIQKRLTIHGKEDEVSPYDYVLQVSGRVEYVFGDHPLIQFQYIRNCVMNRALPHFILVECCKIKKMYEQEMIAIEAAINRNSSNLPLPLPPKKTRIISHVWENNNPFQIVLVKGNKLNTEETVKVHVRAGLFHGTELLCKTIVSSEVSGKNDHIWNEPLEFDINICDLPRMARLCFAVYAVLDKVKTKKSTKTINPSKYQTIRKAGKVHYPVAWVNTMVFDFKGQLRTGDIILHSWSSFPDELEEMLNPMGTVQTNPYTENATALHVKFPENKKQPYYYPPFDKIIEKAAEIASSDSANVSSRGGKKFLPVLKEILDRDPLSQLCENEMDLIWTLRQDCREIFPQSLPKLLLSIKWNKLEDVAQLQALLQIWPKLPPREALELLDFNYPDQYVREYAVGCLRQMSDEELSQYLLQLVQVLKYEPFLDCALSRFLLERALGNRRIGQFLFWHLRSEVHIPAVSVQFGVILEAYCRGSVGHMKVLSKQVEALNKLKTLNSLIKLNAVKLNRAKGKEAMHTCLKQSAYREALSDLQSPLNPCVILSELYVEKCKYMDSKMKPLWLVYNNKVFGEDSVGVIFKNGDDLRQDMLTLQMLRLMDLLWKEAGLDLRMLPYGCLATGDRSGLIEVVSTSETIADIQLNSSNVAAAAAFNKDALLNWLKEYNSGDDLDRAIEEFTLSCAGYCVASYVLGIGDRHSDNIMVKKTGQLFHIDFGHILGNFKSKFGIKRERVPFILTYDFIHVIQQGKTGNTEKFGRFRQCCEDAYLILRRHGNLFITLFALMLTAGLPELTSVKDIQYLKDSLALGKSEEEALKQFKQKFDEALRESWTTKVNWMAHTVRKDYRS

LYN (human) = LYN (human) (UniProt P07948)
EPHB2 (human) = EPHB2 (human) (UniProt P29323)
MERTK (human) = MERTK (human) (UniProt Q12866)
FER (human) = FER (human) (UniProt P16591)
MINK1 (human) = MINK1 (human) (UniProt Q8N4C8)
CDKL2 (human) = CDKL2 (human) (UniProt Q92772)
CDKL2 (human), sequence (Q92772 whole entry, looked up): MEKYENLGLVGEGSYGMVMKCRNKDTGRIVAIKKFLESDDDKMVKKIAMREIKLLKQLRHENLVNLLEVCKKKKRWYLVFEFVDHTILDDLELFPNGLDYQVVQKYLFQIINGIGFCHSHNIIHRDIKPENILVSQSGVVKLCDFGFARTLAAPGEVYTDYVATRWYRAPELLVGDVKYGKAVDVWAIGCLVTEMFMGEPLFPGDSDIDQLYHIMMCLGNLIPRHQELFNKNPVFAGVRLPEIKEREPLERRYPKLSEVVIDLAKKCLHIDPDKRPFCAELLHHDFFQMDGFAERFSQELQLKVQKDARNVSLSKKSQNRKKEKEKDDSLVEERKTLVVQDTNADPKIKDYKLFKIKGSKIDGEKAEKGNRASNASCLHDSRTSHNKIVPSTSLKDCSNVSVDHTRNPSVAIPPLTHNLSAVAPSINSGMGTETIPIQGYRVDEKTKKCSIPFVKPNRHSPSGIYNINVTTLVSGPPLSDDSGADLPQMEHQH

DYRK2 (human) = DYRK2 (human) (UniProt Q92630)
PIK3C2B (human) = PIK3C2B (human) (UniProt O00750)
CSNK1G1 (human) = CSNK1G1 (human) (UniProt Q9HCP0)
CSNK1G1 (human), sequence (Q9HCP0 whole entry, looked up): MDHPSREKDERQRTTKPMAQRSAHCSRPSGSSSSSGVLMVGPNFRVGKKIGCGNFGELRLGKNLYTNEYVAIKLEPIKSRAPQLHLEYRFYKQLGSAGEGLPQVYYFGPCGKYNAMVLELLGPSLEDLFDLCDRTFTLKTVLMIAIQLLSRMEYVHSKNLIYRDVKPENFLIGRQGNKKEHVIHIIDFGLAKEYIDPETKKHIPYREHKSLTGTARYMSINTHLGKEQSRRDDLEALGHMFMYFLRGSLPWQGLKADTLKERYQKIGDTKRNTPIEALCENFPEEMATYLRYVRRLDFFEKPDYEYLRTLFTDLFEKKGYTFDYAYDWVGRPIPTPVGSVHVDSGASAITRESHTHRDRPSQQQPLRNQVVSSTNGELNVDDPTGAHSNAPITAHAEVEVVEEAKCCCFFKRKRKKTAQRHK

IGF1R (human) = IGF1R (human) (UniProt P08069)
ERBB4 (human) = ERBB4 (human) (UniProt Q15303)
INSRR (human) = INSRR (human) (UniProt P14616)
NLK (human) = NLK (human) (UniProt Q9UBE8)
VRK2 (human) = VRK2 (human) (UniProt Q86Y07)

PRPF4B (human), sequence (Q13523 whole entry, looked up): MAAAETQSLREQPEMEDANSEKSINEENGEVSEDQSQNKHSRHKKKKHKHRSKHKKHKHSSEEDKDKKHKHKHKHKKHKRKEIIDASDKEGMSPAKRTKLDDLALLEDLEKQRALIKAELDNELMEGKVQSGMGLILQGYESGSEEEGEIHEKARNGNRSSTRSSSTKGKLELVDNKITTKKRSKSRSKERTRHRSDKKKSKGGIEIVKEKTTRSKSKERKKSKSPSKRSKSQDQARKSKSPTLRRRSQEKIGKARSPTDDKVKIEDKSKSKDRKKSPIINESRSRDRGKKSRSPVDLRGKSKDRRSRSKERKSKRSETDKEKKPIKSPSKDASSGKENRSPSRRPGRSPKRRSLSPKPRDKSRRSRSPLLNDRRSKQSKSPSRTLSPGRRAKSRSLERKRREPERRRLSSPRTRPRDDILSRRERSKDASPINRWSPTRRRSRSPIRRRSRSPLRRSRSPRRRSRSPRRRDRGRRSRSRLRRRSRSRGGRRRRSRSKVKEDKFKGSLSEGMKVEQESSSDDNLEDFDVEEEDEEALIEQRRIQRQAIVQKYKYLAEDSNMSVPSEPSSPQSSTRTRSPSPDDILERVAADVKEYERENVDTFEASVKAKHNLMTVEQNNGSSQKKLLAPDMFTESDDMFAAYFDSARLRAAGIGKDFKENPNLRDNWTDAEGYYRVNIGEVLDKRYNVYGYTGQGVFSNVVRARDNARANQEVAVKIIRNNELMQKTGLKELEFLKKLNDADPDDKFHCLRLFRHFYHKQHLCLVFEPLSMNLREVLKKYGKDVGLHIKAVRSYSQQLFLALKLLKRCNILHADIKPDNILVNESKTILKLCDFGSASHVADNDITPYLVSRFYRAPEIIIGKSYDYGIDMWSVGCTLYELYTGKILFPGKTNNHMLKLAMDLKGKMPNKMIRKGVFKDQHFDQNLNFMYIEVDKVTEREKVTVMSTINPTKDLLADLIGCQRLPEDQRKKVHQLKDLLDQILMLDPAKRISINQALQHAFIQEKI

CCN(CC)CCCCNc1ncc2c(n1)N(C)C(=O)N(c1c(Cl)c(OC)cc(OC)c1Cl)C2
kinase still bound, per cent of control (MAPK11 (human)): 100% | kinase still bound, per cent of control (PRPF4B (human)): 100% | kinase still bound, per cent of control (TESK1 (human)): 100% | kinase still bound, per cent of control (CSNK1G3 (human)): 100% | kinase still bound, per cent of control (CDC42BPA (human)): 100% | kinase still bound, per cent of control (MAP3K11 (human)): 100% | kinase still bound, per cent of control (MARK2 (human)): 100% | kinase still bound, per cent of control (OXSR1 (human)): 100% | kinase still bound, per cent of control (CSNK1D (human)): 100% | kinase still bound, per cent of control (AXL (human)): 100% | kinase still bound, per cent of control (RET (human)): 100% | kinase still bound, per cent of control (ACVR2B (human)): 100% | kinase still bound, per cent of control (DAPK2 (human)): 100% | kinase still bound, per cent of control (CDK7 (human)): 100% | kinase still bound, per cent of control (CDK14 (human)): 100% | kinase still bound, per cent of control (ERBB2 (human)): 100% | kinase still bound, per cent of control (RIOK2 (human)): 100% | kinase still bound, per cent of control (FGFR3 (human)): 3.3% | kinase still bound, per cent of control (CSNK1E (human)): 100% | kinase still bound, per cent of control (TLK2 (human)): 100% | kinase still bound, per cent of control (EPHA8 (human)): 100% | kinase still bound, per cent of control (PRKAA1 (human)): 100% | kinase still bound, per cent of control (PAK2 (human)): 100% | kinase still bound, per cent of control (STK33 (human)): 100% | kinase still bound, per cent of control (PIK3CB (human)): 100% | kinase still bound, per cent of control (LYN (human)): 34% | kinase still bound, per cent of control (EPHB2 (human)): 100% | kinase still bound, per cent of control (MERTK (human)): 100% | kinase still bound, per cent of control (FER (human)): 100% | kinase still bound, per cent of control (MINK1 (human)): 100% | kinase still bound, per cent of control (CDKL2 (human)): 100% | kinase still bound, per cent of control (DYRK2 (human)): 100% | kinase still bound, per cent of control (PIK3C2B (human)): 100% | kinase still bound, per cent of control (CSNK1G1 (human)): 100% | kinase still bound, per cent of control (IGF1R (human)): 100% | kinase still bound, per cent of control (ERBB4 (human)): 100% | kinase still bound, per cent of control (INSRR (human)): 100% | kinase still bound, per cent of control (NLK (human)): 100%

C[C@@H](Oc1cc(-c2cnn(C3CCNCC3)c2)cnc1N)c1c(Cl)ccc(F)c1Cl
kinase still bound, per cent of control (MAPK11 (human)): 100% | kinase still bound, per cent of control (PRPF4B (human)): 48% | kinase still bound, per cent of control (CSNK1G3 (human)): 100% | kinase still bound, per cent of control (CDC42BPA (human)): 43% | kinase still bound, per cent of control (MAP3K11 (human)): 81% | kinase still bound, per cent of control (MARK2 (human)): 20% | kinase still bound, per cent of control (CSNK1D (human)): 100% | kinase still bound, per cent of control (AXL (human)): 5.3% | kinase still bound, per cent of control (ACVR2B (human)): 38% | kinase still bound, per cent of control (DAPK2 (human)): 97% | kinase still bound, per cent of control (CDK7 (human)): 1.2% | kinase still bound, per cent of control (CDK14 (human)): 92% | kinase still bound, per cent of control (RIOK2 (human)): 56% | kinase still bound, per cent of control (FGFR3 (human)): 22% | kinase still bound, per cent of control (CSNK1E (human)): 100% | kinase still bound, per cent of control (TLK2 (human)): 100% | kinase still bound, per cent of control (EPHA8 (human)): 0.2% | kinase still bound, per cent of control (PRKAA1 (human)): 8% | kinase still bound, per cent of control (PAK2 (human)): 96% | kinase still bound, per cent of control (STK33 (human)): 26% | kinase still bound, per cent of control (PIK3CB (human)): 99% | kinase still bound, per cent of control (LYN (human)): 13% | kinase still bound, per cent of control (EPHB2 (human)): 24% | kinase still bound, per cent of control (MERTK (human)): 2.1% | kinase still bound, per cent of control (FER (human)): 2% | kinase still bound, per cent of control (MINK1 (human)): 18% | kinase still bound, per cent of control (CDKL2 (human)): 5.4% | kinase still bound, per cent of control (DYRK2 (human)): 9.6% | kinase still bound, per cent of control (PIK3C2B (human)): 46% | kinase still bound, per cent of control (CSNK1G1 (human)): 100% | kinase still bound, per cent of control (VRK2 (human)): 100% | kinase still bound, per cent of control (IGF1R (human)): 0.9% | kinase still bound, per cent of control (INSRR (human)): 0.25% | kinase still bound, per cent of control (NLK (human)): 93%
